Assay results published in patent US5585385A, “Heterocyclic compounds, their production and use as tachykinin reactor antagonists” (Takeda Chemical Industries, Ltd., priority 1993, dated 1996).

Assays:
[1] = molecular target: T1, substance P receptor (Homo sapiens, UniProt P25103); test: Radioligand receptor binding inhibitory activity using receptor from human lymphoblast cells (IM-9), 125I-BHSP; details: human IM-9 cell receptor, 25° C., 30 minutes, pH 7.4, n=1
T1 construct: The receptor was prepared from human lymphoblast cells (IM-9); endogenous in cells; host or cells: IM-9 human lymphoblast cells (crude membrane preparation)
Description: Radioligand receptor binding inhibitory activity
Binding inhibitory activity using receptor from human lymphoblast cells (IM-9)
The method of A. Margaret "Molecular Pharmacology 42, p.458 (1992)" was modified and used. The receptor was prepared from human lymphoblast cells (IM-9). IM-9 cells (2×10^5 cells/ml) were inoculated and incubated for 3 days (one liter), which was then subjected to centrifuge for 5 minutes at 500×g to obtain cell pellets. The pellets were washed once with phosphate buffer (Flow Laboratories, CAT. No. 28-103-05), which were then crushed using Polytron.homogenizer "Kinematika, Germany" in 30 ml of 50 mM Tris-HCl buffer (pH 7.4) containing 120 mM sodium chloride, 5 mM potassium chloride, 2 μg/ml chymostatin, 40 μg/ml bacitracin, 5 μg/ml phosphoramidon, 0.5 mM phenylmethyl sulfonyl fluoride, 1 mM ethylenediamine tetra-acetic acid, which was subjected to centrifuge at 40,000×g for 20 minutes. The residue was washed twice with 30 ml of the above-mentioned buffer, which was then preserved frozen (-80° C.) as a specimen of the receptor.
The specimen was suspended in a reaction buffer (50 mM Tri-HCl buffer (pH 7.4), 0.02% bovine serum albumin, 1 mM phenylmethylsulfonyl fluoride, 2 μg/chymostatin, 40 μg/ml bacitracin, 3 mM manganese chloride) and 100 ul portion was the suspension was used in the reaction. After addition of the sample and ^125 I-BHSP (0.46 KBq), the reaction was allowed to proceed in 0.2 ml of reaction buffer at 25° C. for 30 minutes. The amount of nonspecific binding was determined by adding substance P at a final concentration of 2×10^-6 M. After the reaction, using a cell harvester (290 PHD, Cambridge Technology, Inc, U.S.A.), rapid filtration was carried out through a glass filter (GF/B, Whatman, U.S.A.) to stop the reaction. After washing three times with 250 ul of 50 mM of Tris-HCl buffer (pH 7.4) containing 0.02% bovine serum albumin, the radioactivity remaining on the filter was determined with a gamma counter. Before use, the filter was immersed in 0.1% polyethyleneimine for 24 hours and air-dried. […] (Radioligand means substance P labelled with ^125 I.) The number of this experiment is one.

[2] = test system: plasma extravasation induced by capsaicin in trachea; test: Inhibitory effect on plasma extravasation induced by capsaicin in trachea of guinea pigs; assay type: in vivo, guinea pigs (Hartley type white male); details: Cavia porcellus, iv, 5 min, 5 min before capsaicin (150 μg/kg i.v.), guinea pig trachea, n=6; for inhibition in vivo at 0.1 mg/kg: 0.1 mg/kg i.v.; for inhibition in vivo at 0.03 mg/kg: 0.03 mg/kg i.v.
Description: Inhibitory effect on plasma extravasation induced by capsaicin in trachea of guinea pigs
Guinea pigs (Hartley type white male guinea pigs), (n=6) were anesthetized with 35 mg/kg of pentobarbital injected intraperitoneally (i.p.), then test compounds were administered intravenously (i.v.). After 5 minutes, a mixed solution of capsaicin (150 μg/kg) and Evans' blue dye (20 mg/kg) was administered intravenously to cause reaction. Ten minutes later, test animals were sacrificed by cutting the aorta, then perfused through pulmonary artery with 50 ml of physiological saline. The trachea was excised, and its wet weight was measured. The trachea was incubated at room temperature in 1 ml of acetone-0.3% sodium sulfate (7:3) overnight and Evans' blue dye was extracted from the trachea. The extract solution was centrifuged at 2800 rpm for 5 minutes. The amount of Evans' blue dye in the supernatant was quantified by measuring absorbance at […].
Plasma extravasation was expressed in terms of the amount of Evans' blue dye (μg) relative to the weight of the trachea (g). The efficacy of the drug was evaluated by calculating the % inhibition in accordance with the following formula. [formula] A: the amount of Evan's blue dye (μg/g) in each test animal B: the mean amount of Evan's blue dye (μg/g) of the group untreated with capsaicin.
C: the mean amount of Evan's blue dye (μg/g) of control group

T1 sequence (P25103 whole entry): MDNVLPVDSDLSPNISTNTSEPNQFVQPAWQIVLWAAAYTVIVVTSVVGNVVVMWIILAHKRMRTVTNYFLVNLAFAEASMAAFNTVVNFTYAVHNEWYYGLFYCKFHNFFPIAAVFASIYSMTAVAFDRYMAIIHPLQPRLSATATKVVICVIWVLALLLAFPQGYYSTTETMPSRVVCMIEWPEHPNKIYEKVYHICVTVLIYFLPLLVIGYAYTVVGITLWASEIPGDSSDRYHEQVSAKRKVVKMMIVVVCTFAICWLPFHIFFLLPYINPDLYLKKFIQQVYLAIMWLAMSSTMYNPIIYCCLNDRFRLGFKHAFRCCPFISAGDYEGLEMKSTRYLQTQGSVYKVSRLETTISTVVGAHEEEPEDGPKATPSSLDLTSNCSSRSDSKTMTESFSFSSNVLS

CN(Cc1cc(C(F)(F)F)cc(C(F)(F)F)c1)C(=O)c1c(-c2ccc(F)cc2)c2sccc2c(=O)n1C [Example 17, N-[3,5-Bis(trifluoromethyl)benzyl]-7-(4-fluorophenyl)-4,5-dihydro-N, 5-dimethyl-4-oxo-6-thieno[3,2-c]pyridinecarboxamide] gave an IC50 [1] of 0.31 nM and an inhibition in vivo at 0.1 mg/kg [2] of 51.5%.

Molecule Cc1ccc(-c2c(C(=O)N(C)Cc3cc(C(F)(F)F)cc(C(F)(F)F)c3)n(C)c(=O)c3ncccc23)cc1 [Example 56, N-[3,5-Bis(trifluoromethyl)benzyl]-7,8-dihydro-N, 7-dimethyl-5-(4-methylphenyl)-8-oxo-6-pyrido[3,4-b]pyridinecarboxamide] has an IC50 [1] of 0.34 nM and an inhibition in vivo at 0.03 mg/kg [2] of 58.1%.

Cc1ccc(-c2c3c(c(=O)n(C)c2C(=O)N(C)Cc2cc(C(F)(F)F)cc(C(F)(F)F)c2)CN(C)CC3)cc1 [Example 59, N-[3,5-Bis(trifluoromethyl)benzyl]-1,2,5,6,7,8-hexahydro-N,2,7-trimethyl-4-(4-methylphenyl)-1-oxo-3-pyrido[3,4-c]pyridinecarboxamide] was tested, and the IC50 [1] was 0.12 nM and the inhibition in vivo at 0.03 mg/kg [2] was 55%.

With COc1ccc(-c2c(C(=O)N(C)Cc3cc(C(F)(F)F)cc(C(F)(F)F)c3)n(C)c(=O)c3ncccc23)cc1 [Example 57, N-[3,5-Bis(trifluoromethyl)benzyl]-7,8-dihydro-5-(4-methoxyphenyl)-N,7-dimethyl-8-oxo-6-pyrido[3,4-b]pyridinecarboxamide] the IC50 [1] was 3.8 nM and the inhibition in vivo at 0.1 mg/kg [2] was 51.4%.

With CN(Cc1cc(C(F)(F)F)cc(C(F)(F)F)c1)C(=O)c1c(-c2ccc(F)cc2)c2ccsc2c(=O)n1C [Example 13, N-[3,5-Bis(trifluoromethyl)benzyl]-4-(4-fluorophenyl)-6,7-dihydro-N, 6-dimethyl-7-oxo-5-thieno[2,3-c]pyridinecarboxamide] the IC50 [1] was 0.08 nM and the inhibition in vivo at 0.1 mg/kg [2] was 76.1%.

Work on CN(Cc1cc(C(F)(F)F)cc(C(F)(F)F)c1)C(=O)c1c(-c2ccc(F)cc2)c2cccnc2c(=O)n1C [Example 1, N-[3,5-Bis(trifluoromethyl)benzyl]-5-(4-fluorophenyl)-7,8-dihydro-N, 7-dimethyl-8-oxo-6-pyrido[3,4-b]pyridine carboxamide] yielded an IC50 [1] of 0.08 nM and an inhibition in vivo at 0.03 mg/kg [2] of 76.1%.

Molecule CN(Cc1cc(C(F)(F)F)cc(C(F)(F)F)c1)C(=O)c1c(-c2ccccc2)c2c(c(=O)n1C)N(C)CCC2 [Example 49, N-[3,5-Bis(trifluoromethyl)benzyl]-1,2,3,4,7,8-hexahydro-5-phenyl-N,1,7-trimethyl-8-oxo-6-pyrido[3,4-b]pyridinecarboxamide] has an IC50 [1] of 1.3 nM and an inhibition in vivo at 0.1 mg/kg [2] of 66.7%.

CN(Cc1cc(C(F)(F)F)cc(C(F)(F)F)c1)C(=O)c1c(-c2ccc(F)cc2)c2ccncc2c(=O)n1C [Example 8, N-[3,5-Bis(trifluoromethyl)benzyl]-4-(4-fluorophenyl)-1,2-dihydro-N, 2-dimethyl-1-oxo-3-pyrido[3,4-c]pyridine carboxamide] gave an IC50 [1] of 0.17 nM and an inhibition in vivo at 0.1 mg/kg [2] of 64.9%.

Work on CN(Cc1cc(C(F)(F)F)cc(C(F)(F)F)c1)C(=O)c1c(-c2ccc(F)cc2)c2c(c(=O)n1C)CNCC2 [Example 53, N-[3,5-Bis(trifluoromethyl)benzyl]-4-(4-fluorophenyl)-1,2,5,6,7,8-hexahydro-N,2-dimethyl-1-oxo-3-pyrido[3,4-c]pyridinecarboxamide] yielded an IC50 [1] of 0.15 nM and an inhibition in vivo at 0.1 mg/kg [2] of 59.9%.

Cc1ccccc1-c1c2c(c(=O)n(C)c1C(=O)N(C)Cc1cc(C(F)(F)F)cc(C(F)(F)F)c1)CCCN2 [Example 26, N-[3,5-Bis(trifluoromethyl)benzyl]-1,2,3,4,5,6-hexahydro-N, 6-dimethyl-8-(2-methylphenyl)-5-oxo-7-pyrido[4,3-b]pyridinecarboxamide] gave an IC50 [1] of 0.05 nM and an inhibition in vivo at 0.03 mg/kg [2] of 46.2%.

Cc1ccc(-c2c(C(=O)N(C)Cc3cc(C(F)(F)F)cc(C(F)(F)F)c3)n(C)c(=O)c3cnccc23)cc1 [Example 58, N-[3,5-Bis(trifluoromethyl)benzyl]-1,2-dihydro-N, 2-dimethyl-4-(4-methylphenyl)-1-oxo-3-pyrido[3,4-c]pyridinecarboxamide] gave an IC50 [1] of 0.72 nM and an inhibition in vivo at 0.1 mg/kg [2] of 35.2%.

CN(Cc1cc(C(F)(F)F)cc(C(F)(F)F)c1)C(=O)c1c(-c2ccccc2)c2c(c(=O)n1C)CNCC2 [Example 54, N-[3,5-Bis(trifluoromethyl)benzyl]-1,2,5,6,7,8-hexahydro-N,2-dimethyl-1-oxo-4-phenyl-3-pyrido[3,4-c]pyridinecarboxamide] was tested, and the IC50 [1] was 0.4 nM and the inhibition in vivo at 0.1 mg/kg [2] was 48.3%.

CN(Cc1cc(C(F)(F)F)cc(C(F)(F)F)c1)C(=O)c1c(-c2ccccc2)c2cccnc2c(=O)n1C [Example 36, N-[3,5-Bis(trifluoromethyl)benzyl]-7,8-dihydro-N, 7-dimethyl-8-oxo-5-phenyl-6-pyrido[3,4-b]pyridinecarboxamide] was tested, and the IC50 [1] was 0.34 nM and the inhibition in vivo at 0.03 mg/kg [2] was 54.3%.

For CN1CCc2c(-c3ccccc3)c(C(=O)N(C)Cc3cc(C(F)(F)F)cc(C(F)(F)F)c3)n(C)c(=O)c2C1 [Example 50, N-[3,5-Bis(trifluoromethyl)benzyl]-1,2,5,6,7,8-hexahydro-N,2,7-trimethyl-1-oxo-4-phenyl-3-pyrido[3,4-c]pyridinecarboxamide], the IC50 [1] was 0.4 nM and the inhibition in vivo at 0.1 mg/kg [2] was 52.2%.

Work on CN(Cc1cc(C(F)(F)F)cc(C(F)(F)F)c1)C(=O)c1c(-c2ccc(F)cc2)c2c(c(=O)n1C)CCCN2 [Example 27, N-[3,5-Bis(trifluoromethyl)benzyl]-8-(4-fluorophenyl)-1,2,3,4,5,6-hexahydro-N, 6-dimethyl-5-oxo-7-pyrido[4,3-b]pyridinecarboxamide] yielded an IC50 [1] of 0.18 nM and an inhibition in vivo at 0.1 mg/kg [2] of 74%.

CN(Cc1cc(C(F)(F)F)cc(C(F)(F)F)c1)C(=O)c1c(-c2ccc(F)cc2)c2ccn(C)c2c(=O)n1C [Example 39, N-[3,5-Bis(trifluoromethyl)benzyl]-4-(4-fluorophenyl)-6,7-dihydro-N,1,6-trimethyl-7-oxo-5-pyrrolo[2,3-c]pyridinecarboxamide] showed an IC50 [1] of 0.28 nM and an inhibition in vivo at 0.1 mg/kg [2] of 67.9%.

Work on CN(Cc1cc(C(F)(F)F)cc(C(F)(F)F)c1)C(=O)c1c(-c2ccc(F)cc2)c2scnc2c(=O)n1C [Example 41, N-[3,5-Bis(trifluoromethyl)benzyl]-7-(4-fluorophenyl)-4,5-dihydro-N, 5-dimethyl-4-oxo-6-thiazolo[4,5-c]pyridinecarboxamide] yielded an IC50 [1] of 1.1 nM and an inhibition in vivo at 0.1 mg/kg [2] of 46.9%.

Work on CN(Cc1cc(C(F)(F)F)cc(C(F)(F)F)c1)C(=O)c1c(-c2ccc(F)cc2)c2nccnc2c(=O)n1C [Example 7, N-[3,5-Bis(trifluoromethyl)benzyl]-8-(4-fluorophenyl)-5,6-dihydro-N, 6-dimethyl-5-oxo-7-pyrido[3,4-b]pyrazine carboxamide] yielded an IC50 [1] of 0.2 nM and an inhibition in vivo at 0.1 mg/kg [2] of 71.9%.
